Residue numbers refer to the chain shown, from its start.
Key:
Format in all cases: cell-based
W741L AR = biological target: T1, W741L AR (Homo sapiens, UniProt P10275, W742L); assay: Agonism in W741L mutant AR, AR transactivation assay in COS-1 cells, test compounds alone; details: 10 microM, compound alone
T1 construct: expressed in transfected cells; host or cells: COS-1
T1 sequence (P10275 1-920 W742L): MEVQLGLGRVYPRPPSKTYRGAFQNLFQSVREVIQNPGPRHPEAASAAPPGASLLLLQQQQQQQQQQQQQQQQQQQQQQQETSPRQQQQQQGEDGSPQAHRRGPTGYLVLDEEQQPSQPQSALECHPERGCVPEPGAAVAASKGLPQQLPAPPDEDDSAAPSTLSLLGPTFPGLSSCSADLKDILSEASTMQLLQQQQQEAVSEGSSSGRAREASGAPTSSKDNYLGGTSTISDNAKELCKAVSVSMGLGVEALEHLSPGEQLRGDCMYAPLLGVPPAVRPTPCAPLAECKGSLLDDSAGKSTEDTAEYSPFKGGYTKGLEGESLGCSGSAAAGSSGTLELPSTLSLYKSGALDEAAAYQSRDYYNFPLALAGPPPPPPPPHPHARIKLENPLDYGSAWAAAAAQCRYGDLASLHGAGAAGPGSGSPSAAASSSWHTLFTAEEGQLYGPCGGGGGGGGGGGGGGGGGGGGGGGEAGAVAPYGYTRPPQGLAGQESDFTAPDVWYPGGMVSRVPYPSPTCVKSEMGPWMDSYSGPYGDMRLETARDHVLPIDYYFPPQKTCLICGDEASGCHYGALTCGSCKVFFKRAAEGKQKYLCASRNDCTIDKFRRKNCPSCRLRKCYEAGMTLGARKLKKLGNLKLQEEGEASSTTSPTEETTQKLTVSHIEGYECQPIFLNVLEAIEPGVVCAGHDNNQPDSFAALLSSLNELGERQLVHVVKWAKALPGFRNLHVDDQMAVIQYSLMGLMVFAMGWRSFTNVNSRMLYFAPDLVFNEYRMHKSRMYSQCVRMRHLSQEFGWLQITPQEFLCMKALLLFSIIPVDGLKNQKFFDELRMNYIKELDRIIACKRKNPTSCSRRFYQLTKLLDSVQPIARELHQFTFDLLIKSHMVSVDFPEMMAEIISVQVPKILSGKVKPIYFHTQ
Protocol: COS-1 (American Type Culture Collection) were cultured in DMEM supplemented with 10% FBS, penicillin (6.25 U/ml) and streptomycin (6.25 μg/ml) and seeded onto 48-well plates (50 000 cells/well) one day before transfection. Transfection media containing 2.5% charcoal-stripped FBS in DMEM was changed on cells 4 h prior to transfection. Cells were transfected with 50 ng of reporter gene plasmid (pPB-286/+32-LUC; PB, probasin promoter), 5 ng of AR expression plasmid (pSG5-hAR), and 5 ng of pCMVβ (an internal, beta-galactosidase control for transfection efficiency and cell growth) using TranslT-LT1 reagent (Mirus Bio Corporation) according to the manufacturer's instructions. […] After 18 h, reporter gene activities (LUC and beta-galactosidase) were determined according to standard methods. The data are expressed as relative LUC activity (luciferase light units divided by beta-galactosidase A420nm to control for transfection efficiency) of a given compound in relation to the activity of a reference test item (=100%).
Agonism in W741L AR of compounds of the present invention was measured in AR transactivation assay in COS-1 cells as described above except that AR expression vector harboring the W741L mutation was used instead of the WT AR. The transfected cells were exposed to test compounds alone.

T877A AR = biological target: T2, T877A AR (Homo sapiens, UniProt P10275, T878A); assay: Agonism in T877A mutant AR, AR transactivation assay in COS-1 cells, test compounds alone; details: 10 microM, compound alone
T2 construct: expressed in transfected cells; host or cells: COS-1
T2 sequence (P10275 1-920 T878A): T1 sequence (P10275 1-920 W742L) with L742W, T878A
Description: The transfected cells were exposed to test compounds alone. Testosterone was used as reference agonist, and its' relative LUC activity representing AR-dependent transcription was set to 100%.

WT AR = biological target: T3, WT AR (Homo sapiens, UniProt P10275); assay: Antagonism in WT AR, AR transactivation reporter gene assay in COS-1 cells, competitive setting with 50 nM testosterone; details: 18 h
T3 construct: expressed in transfected cells; host or cells: COS-1
T3 sequence (P10275 1-920): T1 sequence (P10275 1-920 W742L) with L742W
Protocol: After 18 h, reporter gene activities (LUC and beta-galactosidase) were determined according to standard methods. The data are expressed as relative LUC activity (luciferase light units divided by beta-galactosidase A420nm to control for transfection efficiency) of a given compound in relation to the activity of a reference test item (=100%).
Antagonism in WT AR of compounds of the present invention was measured in AR transctivation assay in COS-1 cells in competitive setting using testosterone as a reference agonist as described above. […] Relative LUC activity representing AR-dependent transcription obtained by exposure to testosterone alone was set to 100%.

Compound	Relative LUC activity (%) in W741L AR in relation to BIC (100%) (W741L AR) [%]	Relative LUC activity (%) in T877A AR in relation to testosterone (100%) (T877A AR) [%]	Relative LUC activity (%) indicating residual androgen activity in relation to testosterone (100%) (WT AR; 1 microM compound) [%]	Relative LUC activity (%) indicating residual androgen activity in relation to testosterone (100%) (WT AR; 10 microM compound) [%]
CCS(=O)(=O)CC(O)(C(=O)Nc1ccc(C#N)c(C(F)(F)F)c1)c1ccc(F)cc1 (stereo not drawn) [Example 1, N-[4-cyano-3-(trifluoro-methyl)phenyl]-3-(ethanesulfonyl)-2-(4-fluorophenyl)-2-hydroxypropanamide]	12	14		
CC(C)CCS(=O)(=O)CC(O)(C(=O)Nc1ccc(C#N)c(C(F)(F)F)c1)c1ccc(F)cc1 (stereo not drawn) [Example 2, N-[4-cyano-3-(trifluoromethyl)phenyl]-2-(4-fluorophenyl)-2-hydroxy-3-[(3-methylbutane)-sulfonyl]propanamide]			12	3
N#Cc1ccc(NC(=O)C(O)(CS(=O)(=O)Cc2ccco2)c2ccc(C(F)(F)F)cc2)cc1C(F)(F)F (stereo not drawn) [Example 3, N-[4-cyano-3-(trifluoro-methyl)phenyl]-3-[(furan-2-ylmethane)sulfonyl]-2-hydroxy-2-[4-(trifluoromethyl)phenyl]propanamide]	4	3	17	3
N#Cc1ccc(NC(=O)C(O)(CS(=O)(=O)c2ccc(F)cc2)c2ccc(C(F)(F)F)cc2)cc1Cl (stereo not drawn) [Example 4, N-(3-chloro-4-cyanophenyl)-3-[(4-fluorobenzene)sulfonyl]-2-hydroxy-2-[4-(trifluoromethyl)phenyl]propanamide]	8	1	21	1
CCS(=O)(=O)CC(O)(C(=O)Nc1ccc(C#N)c(Cl)c1)c1ccc(F)c(F)c1 (stereo not drawn) [Example 5, N-(3-chloro-4-cyanophenyl)-2-(3,4-difluorophenyl)-3-(ethanesulfonyl)-2-hydroxypropanamide]	18	9		
N#Cc1ccc(NC(=O)C(O)(CS(=O)(=O)c2ccc(F)c(F)c2)c2ccc(F)cc2)cc1Cl (stereo not drawn) [Example 6, N-(3-chloro-4-cyanophenyl)-3-[(3,4-difluorobenzene)sulfonyl]-2-(4-fluorophenyl)-2-hydroxypropanamide]			7	5
CCS(=O)(=O)CC(O)(C(=O)Nc1ccc(C#N)c(C(F)(F)F)c1)c1ccc(C(F)(F)F)cc1 (stereo not drawn) [Example 17, N-[4-cyano-3-(trifluoromethyl)phenyl]-3-(ethanesulfonyl)-2-[4-(trifuoromethyl)phenyl]-2-hydroxypropanamide]			18	3
COc1ccc(C(O)(CS(=O)(=O)c2ccc(F)c(F)c2)C(=O)Nc2ccc(C#N)c(C(F)(F)F)c2)cc1F (stereo not drawn) [Example 22, N-(4-cyano-3-(trifluoromethyl)phenyl)-3-[(3,4-difluorobenzene)sulfonyl]-2-hydroxy-2-[3-fluoro-4-(methoxy)phenyl]propanamide]			9	3
COc1ccc(C(O)(CS(=O)(=O)c2cccc(F)c2)C(=O)Nc2ccc(C#N)c(Cl)c2)cc1F (stereo not drawn) [Example 33, N-(3-chloro-4-cyanophenyl)-2-(3-fluoro-4-methoxyphenyl)-3-[(3-fluorobenzene)sulfonyl]-2-hydroxypropanamide]			5	1
N#Cc1ccc(NC(=O)C(O)(CS(=O)(=O)c2cccc(F)c2)c2ccc(F)c(F)c2)cc1C(F)(F)F (stereo not drawn) [Example 39, N-[4-cyano-3-(trifluoromethyl)phenyl]-2-(3,4-difluorophenyl)-3-[(3-fluorobenzene)sulfonyl]-2-hydroxypropanamide]			14	2

Source: patent US8816119B2, “Arylamide derivatives having antiandrogenic properties” (Medeia Therapeutics Ltd, priority 2010, dated 2014)
